Test results from US20260256704A1, “STEALTH-STABILIZED LIPO-POLYAMINO ACIDS” (POLYPEPTIDE THERAPEUTIC SOLUTIONS, S.L., priority 2022, published 2026).

Experiments:
HEK293 cells = experiment: Luciferase assay for transfection efficiency in HEK293 cells; assay type: cell-based; conditions: at different concentrations (50-300 ng mRNA/well)
Protocol: (§1) HEK293 cells were cultured in DMEM high glucose with Glutamax (Gibco—Thermo Fisher #61965-059) supplemented with 10% of Fetal Bovine Serum (Hyclone #SV30160.03HI, provided by GE Healthcare Europe GmbH) and 1% penicillin/streptomycin. Transfections were carried out on 96-well plates containing 30000 cells/well in a final volume of 100 μl, and cells were incubated 24 hours at 37° C. and 5% CO2. After 24 h from cell seeding, the medium was removed and refreshed with 90 μl of complete medium. 10 μl of each LNPs formulation were added to the cells. After 24 hours cells were recovered and processed.
After 24 h post-incubation with the LNPs formulation, 100 μl of BrightGlo reagent (Promega #E2620) was added in each well following manufacturer instructions. After 5 minutes of incubation at room temperature luciferase activity was measured using VictorNivo (PerkinElmer). Data was represented as luminescence relative to the percentage of transfection relative to the positive control of transfection. […]

HeLa cells = experiment: Luciferase assay for transfection efficiency in HeLa cells; assay type: cell-based; conditions: LNPs containing the conjugate
Protocol: as §1, with “HeLa” for “HEK293”, “10000” for “30000”, “cells. In the case of positive control (Lipofectamine™ 2000 Transfection Reagent, Invitrogen™), manufacturer guidelines were followed.” for “cells.”
After 24 h post-incubation with the LNPs formulation, 100 μl of BrightGlo reagent (Promega #E2620) was added in each well following manufacturer instructions. After 5 minutes of incubation at room temperature luciferase activity was measured using VictorNivo (PerkinElmer). Data was represented as luminescence relative to the percentage of transfection relative to the positive control of transfection.
The transfection data is represented as % of the positive control Lipofectamine™ 2000 being the positive control 100% after 24 h of treatment and cell viability is compared to non-treated (NT) cells, being the ATP content readout of NT (non-treated) cells equal to 100%.

Substance	transfection efficiency relative to the commercial standard DMG-PEG (HEK293 cells)	transfection efficiency relative to the gold standard Lipofectamine (HeLa cells) [fold]
C14-PSar [C14PSar]	comparable transfection to DMG-PEG	
C14-PGA(Diol) [Lipo-PAA1]		2.5
